What was measured:
NCI-H2122 = experiment: Cytotoxicity against human NCI-H2122 cells incubated for 4 days; format: functional, cell-based; details: NCI-H2122, 96 h
NCI-H1155 [1] = experiment: Cytotoxicity against human NCI-H1155 cells incubated for 4 days in presence of sodium oleate; format: functional, cell-based; details: NCI-H1155, 96 h
NCI-H1155 [2] = experiment: Cytotoxicity against human NCI-H1155 cells expressing CYP4F11 incubated for 4 days; format: functional, cell-based; details: NCI-H1155, 96 h
NCI-H1155 [3] = experiment: Cytotoxicity against human NCI-H1155 cells expressing pLVX empty vector incubated for 4 days; format: functional, cell-based; details: NCI-H1155, 96 h
NCI-H1155 [4] = experiment: Cytotoxicity against human NCI-H1155 cells expressing CYP4F11 incubated for 4 days in presence of sodium oleate; format: functional, cell-based; details: NCI-H1155, 96 h
[5] = biological target: T1, Acyl-CoA desaturase 1 (Mus musculus) (UniProt P13516); experiment: Inhibition of SCD1 in CD1 mouse liver at 100 nM using stearoyl [9,10-3H] CoA as substrate and NADPH incubated for 2 hrs by scintillation counting method
T1 sequence (whole entry): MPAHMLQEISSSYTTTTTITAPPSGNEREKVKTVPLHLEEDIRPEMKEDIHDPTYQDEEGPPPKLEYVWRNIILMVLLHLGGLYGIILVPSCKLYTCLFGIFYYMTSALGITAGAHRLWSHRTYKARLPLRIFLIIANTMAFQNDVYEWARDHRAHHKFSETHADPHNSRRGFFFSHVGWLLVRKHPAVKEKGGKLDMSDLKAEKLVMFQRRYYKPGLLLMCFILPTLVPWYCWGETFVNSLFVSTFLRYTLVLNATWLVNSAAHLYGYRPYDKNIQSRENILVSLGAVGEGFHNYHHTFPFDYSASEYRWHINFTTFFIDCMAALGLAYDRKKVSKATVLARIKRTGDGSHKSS

SMILES | EC50 (NCI-H2122) | other results
COc1ccc(CCNC(=O)C(=O)Nc2cccc(Cl)c2)cc1 | 0.38 µM | 
COc1ccc(CCNC(=O)C(=O)Nc2cnccn2)cc1 | > 50 µM | 
COc1ccc(CCNC(=O)c2nc3ccccc3c(=O)[nH]2)cc1 | > 50 µM | 
COc1ccc(CCNC(=O)C(=O)Nc2ccc(Cl)c(F)c2)cc1 | 0.29 µM | 
COc1ccc(CCNC(=O)C(=O)N2CCc3ccccc32)cc1 | > 50 µM | 
COc1ccc(CCNC(=O)c2nc3ccccc3[nH]2)cc1 | > 50 µM | 
COc1ccc(CCCCNC(=O)c2ccc(Cl)cc2)cc1 | 3.27 µM | 
COc1ccc(CCNC(=O)C(=O)Nc2ccc(Cl)cn2)cc1 | 0.35 µM | 
COc1ccc(CCNC(=O)C(=O)Nc2ccc(C)c(F)c2)cc1 | 0.31 µM | 
COc1ccc(C(C)CNC(=O)C(=O)Nc2ccc(Cl)cc2)cc1 (stereo not drawn) | 3.66 µM | EC50 (NCI-H1155 [1]): > 50 µM; EC50 (NCI-H1155 [2]): > 50 µM; EC50 (NCI-H1155 [3]): > 50 µM; EC50 (NCI-H1155 [4]): > 50 µM
O=C(NCCc1ccccc1O)C(=O)Nc1ccc(Cl)cc1 | 1.72 µM | 
COc1cccc(CCNC(=O)C(=O)Nc2ccc(Cl)cc2)c1 | > 50 µM | 
COc1ccc(CCNC(=O)NC(=O)c2ccc(Cl)cc2)cc1 | 0.15 µM | 
O=C(NCCc1ccc(Br)cc1)C(=O)Nc1ccc(Cl)cc1 | > 50 µM | 
COc1ccc(CCNC(=O)C(=O)Nc2ccc(Cl)c(Cl)c2)cc1 | 0.49 µM | 
COc1ccc(CCN(C)C(=O)NC(=O)c2ccc(C(=O)c3ccccc3)cc2)cc1 | 8.7 µM | 
CC(CNC(=O)C(=O)Nc1ccc(Cl)cc1)c1ccc(O)cc1 (stereo not drawn) | 4 µM | inhibition [5]: 28%; EC50 (NCI-H1155 [1]): > 50 µM; EC50 (NCI-H1155 [2]): > 50 µM; EC50 (NCI-H1155 [3]): > 50 µM; EC50 (NCI-H1155 [4]): > 50 µM
COc1ccc(CCNC(=O)C(=O)Nc2ccc(Cl)c(C#N)c2)cc1 | 0.4 µM | 
COc1ccc(CCNC(=O)C(=O)NC2CCCCCC2)cc1 | > 50 µM | 
COc1ccc(CCNC(=O)N(C)C(=O)c2ccc(C(=O)c3ccccc3)cc2)cc1 | 6.2 µM | 
COc1ccc(CCNC(=O)C(=O)Nc2ccccc2F)cc1 | > 50 µM | 
COc1ccc(CCNC(=O)NC(=O)c2ccc(C(N)c3ccccc3)cc2)cc1 (stereo not drawn) | 0.32 µM | 
COc1ccc(CCNC(=O)C(=O)Nc2ccccc2Br)cc1 | > 50 µM | 
COc1ccc(CCNC(=O)COc2ccc(Cl)cc2)cc1 | > 50 µM | 
COc1ccc(CCNC(=O)C(=O)NCCc2ccc(OC)cc2)cc1 | > 50 µM | 

SMILES | EC50 (NCI-H2122) | other results
COc1ccc(CCNC(=O)C(=O)Nc2cc(Cl)cc(C(F)(F)F)c2)cc1 | > 50 µM | 
COC(=O)c1ccc(C(=O)NC(=O)NCCc2ccc(OC)cc2)cc1 | > 50 µM | 
COc1ccc(CCNC(=O)c2cnc3ccccc3n2)cc1 | > 50 µM | 
CCOc1cccc(NC(=O)C(=O)NCCc2ccc(OC)cc2)c1 | 24 µM | 
CCOc1ccc(CCNC(=O)C(=O)Nc2ccc(Cl)cc2)cc1 | > 50 µM | 
COc1ccccc1CCNC(=O)C(=O)Nc1ccc(Cl)cc1 | > 50 µM | 
Cc1ccc(CCNC(=O)C(=O)Nc2ccc(Cl)cc2)cc1 | > 50 µM | 
COc1ccc(CCNC(=O)C(=O)Nc2cncc(C)c2)cc1 | 2.6 µM | 
COc1ccc(CCNC(=O)NC(=O)c2ccc(-c3ccccc3)cc2)cc1 | 0.17 µM | 
COc1ccc(CCNC(=O)C(=O)Nc2ccc(C)c(OC)c2)cc1 | > 50 µM | 
COc1ccc(CCNC(=O)C(=O)N2CCCC2)cc1 | > 50 µM | 
COc1ccc(CCNC(=O)C(=O)Nc2cccnc2F)cc1 | > 50 µM | 
COc1ccc(CCNC(=O)C(=O)Nc2ccccc2)cc1 | 0.46 µM | 
COc1ccc(CCNC(=O)NC(=O)c2ccc(C(=O)c3ccccc3C)cc2)cc1 | 0.32 µM | 
COc1ccc(CCNC(=O)C(=O)Nc2ccc(C)c(Cl)c2)cc1 | 0.6 µM | 
COc1ccc(CCNC(=O)C(=O)Nc2ccc(OC)c(C)c2)cc1 | 0.81 µM | 
COc1ccc(CCNC(=O)C(=O)Nc2cccc(Br)n2)cc1 | > 50 µM | 
COc1ccc(CCNC(=O)C(=O)Nc2ccc(C(=O)c3ccccc3)cc2)cc1 | 0.085 µM | 
COc1ccc(CCNC(=O)NC(=O)c2cccc(-c3ccccc3)c2)cc1 | > 50 µM | 
O=C(NCCc1cccc(O)c1)C(=O)Nc1ccc(Cl)cc1 | 2.4 µM | 
O=C(NCCc1ccc(F)cc1)C(=O)Nc1ccc(Cl)cc1 | 48 µM | 
COc1ccc(CCNC(=O)C(=O)Nc2ccc(C(=O)c3ccc(O)cc3)cc2)cc1 | > 50 µM | 
COc1ccc(CCNC(=O)c2nc3ccccc3o2)cc1 | 30 µM | 
COc1ccc(CCNC(=O)C(=O)Nc2cccc(C#N)c2)cc1 | 0.41 µM | 
COc1ccc(CCNC(=O)C(=O)Nc2ccc(Cl)nc2)cc1 | 0.44 µM | 

SMILES | EC50 (NCI-H2122) | other results
COc1ccc(CCNC(=O)C(=O)Nc2ccccn2)cc1 | > 50 µM | 
COc1ccc(CCNC(=O)C(=O)O)cc1 | > 50 µM | 
COc1ccc(CCNC(=O)C(=O)Nc2ccccc2OC)cc1 | > 50 µM | 
COc1ccc(CCNC(=O)C(=O)NC2CCC2)cc1 | > 50 µM | 
COc1ccc(CCN(C)C(=O)N(C)C(=O)c2ccc(C(=O)c3ccccc3)cc2)cc1 | 16 µM | 
COc1ccc(CCNC(=O)C(=O)Nc2cc(Cl)cc(Cl)c2)cc1 | > 50 µM | 
COc1ccc(CCNC(=O)c2ccc3cccc(O)c3n2)cc1 | 30 µM | 
COc1ccc(CCNC(=O)c2ccc3ccccc3c2O)cc1 | 36 µM | 
COc1ccc(CCNC(=O)Nc2ccc(Cl)cc2)cc1 | > 50 µM | 
COc1ccc(CCNC(=O)NC(=O)c2ccc(C(=O)N3CCCCC3)cc2)cc1 | 2.3 µM | 
Cc1ccccc1C(=O)c1ccc(C(=O)NC(=O)NCCc2ccc(O)cc2)cc1 | 1.5 µM | inhibition [5]: 57%
COc1ccc(CCNC(=O)C(=O)Nc2ccncc2)cc1 | > 50 µM | 
COc1ccc(CCNC(=O)C(=O)Nc2ccc(C(=O)c3ccc(OC)cc3)cc2)cc1 | 0.081 µM | 
COc1ccc(CCNC(=O)C(=O)Nc2cnccc2C)cc1 | > 50 µM | 
COc1ccc(CCNC(=O)NC(=O)c2ccc(C(O)c3ccccc3)cc2)cc1 (stereo not drawn) | 0.097 µM | 
COc1ccc(CCNC(=O)NC(=O)c2ccc(Oc3ccccc3)cc2)cc1 | 0.031 µM | 
COc1ccc(CCNC(=O)C(=O)Nc2ccc(Cl)c([N+](=O)[O-])c2)cc1 | 1.3 µM | 
COc1ccc(CCN(C)C(=O)C(=O)Nc2ccc(Cl)cc2)cc1 | 10.5 µM | 
COc1ccc(CCNC(=O)C(=O)NC2CCCCC2)cc1 | > 50 µM | 
O=C(NCCc1ccc(O)cc1)C(=O)NC1CC1 | > 50 µM | inhibition [5]: 0%; EC50 (NCI-H1155 [1]): > 50 µM; EC50 (NCI-H1155 [2]): > 50 µM; EC50 (NCI-H1155 [3]): > 50 µM; EC50 (NCI-H1155 [4]): > 50 µM
COc1ccc(CCNC(=O)C(=O)NC2CCCC2)cc1 | > 50 µM | 
COc1ccc(CCNC(=O)C(=O)Nc2ccc(C#N)cc2)cc1 | 0.71 µM | 
COc1ccc(CCNC(=O)NC(=O)c2ccc(C(=O)N3CCOCC3)cc2)cc1 | > 50 µM | 
O=C(NCCc1ccc(O)cc1)c1ccc2ccccc2n1 | > 50 µM | inhibition [5]: 31%; EC50 (NCI-H1155 [1]): 46 µM; EC50 (NCI-H1155 [2]): 17 µM; EC50 (NCI-H1155 [3]): 18 µM; EC50 (NCI-H1155 [4]): 35 µM
COc1ccc(CC(C)NC(=O)C(=O)Nc2ccc(Cl)cc2)cc1 (stereo not drawn) | 3.53 µM | EC50 (NCI-H1155 [1]): 12 µM; EC50 (NCI-H1155 [2]): 16.4 µM; EC50 (NCI-H1155 [3]): 9.5 µM; EC50 (NCI-H1155 [4]): 7.6 µM

SMILES | EC50 (NCI-H2122) | other results
COc1ccc(CCNC(=O)C(=O)Nc2ccc(Cl)c(C(F)(F)F)c2)cc1 | 1.4 µM | 
COc1ccc(CCNC(=O)c2ccc(Cl)cc2)cc1 | > 50 µM | 
COc1ccc(CCNC(=O)C(=O)Nc2ccc(F)c(Cl)c2)cc1 | 0.74 µM | 
COc1ccc(CCNC(=O)C(=O)Nc2ccc(Br)cn2)cc1 | 0.29 µM | 
COc1ccc(CCNC(=O)C(=O)Nc2cc(F)cc(Cl)c2)cc1 | > 50 µM | 
COc1ccc(CCNC(=O)NC(=O)c2ccc(C(=O)c3ccccc3)cc2)cc1 | 0.11 µM | 
COc1ccc(CCNC(=O)C(=O)N2Cc3ccccc3C2)cc1 | > 50 µM | 
COc1ccc(CCNC(=O)CNc2ccc(Cl)cc2)cc1 | > 50 µM | 
O=C(NCCc1ccc(Cl)cc1)C(=O)Nc1ccc(Cl)cc1 | > 50 µM | 
COc1ccc(CCNC(=O)C(=O)Nc2cccc(F)n2)cc1 | > 50 µM | 
CC(Cc1ccc(O)cc1)NC(=O)C(=O)Nc1ccc(Cl)cc1 (stereo not drawn) | 5.1 µM | inhibition [5]: 24%; EC50 (NCI-H1155 [1]): 10 µM; EC50 (NCI-H1155 [2]): 11.2 µM; EC50 (NCI-H1155 [3]): 11.7 µM; EC50 (NCI-H1155 [4]): 13 µM
COc1ccc(CCNC(=O)c2ccc3ccccc3n2)cc1 | > 50 µM | EC50 (NCI-H1155 [1]): > 50 µM; EC50 (NCI-H1155 [2]): > 50 µM; EC50 (NCI-H1155 [3]): > 50 µM; EC50 (NCI-H1155 [4]): > 50 µM
COc1ccc(CCNC(=O)C(=O)Nc2cncc(Cl)c2)cc1 | 5.9 µM | 
COc1ccc(CCNC(=O)NC(=O)c2ccc(C(=O)O)cc2)cc1 | > 50 µM | 
COc1ccc(CCNC(=O)NC(=O)c2ccc(OC)cc2)cc1 | 1 µM | 
COc1ccc(CCNC(=O)NC(=O)c2cccc(Br)c2)cc1 | > 50 µM | 
COc1ccc(CCNC(=O)C(=O)Nc2ccc(F)cc2)cc1 | 0.29 µM | 
O=C(NCCc1ccccc1)C(=O)Nc1ccc(Cl)cc1 | > 50 µM | 
COc1ccc(CCNC(=O)C(=O)NCc2ccc(Cl)cc2)cc1 | > 50 µM | 
COc1ccc(CCNC(=O)C(=O)Nc2ccc(Cl)cc2)cc1OC | > 50 µM | 
COc1ccc(CCNC(=O)NC(=O)c2ccc(OCc3ccccc3)cc2)cc1 | 0.031 µM | 
COc1ccc(CCNC(=O)C(=O)N2CCc3ccccc3C2)cc1 | > 50 µM | 
COc1ccc(CCNC(=O)NC(=O)c2ccc(Br)cc2)cc1 | 0.16 µM | 
COc1ccc(CCNC(=O)C(=O)N2CCCCC2)cc1 | > 50 µM | 
COc1ccc(CCCNC(=O)c2ccc(Cl)cc2)cc1 | > 50 µM | 
